Two compounds from US20260097091A1, “ADMINISTRATION OF GLUTATHIONE TRISULFIDE TO AMELIORATE PERIPHERAL NEUROPATHY” (The General Hospital Corporation, priority 2022, published 2026) can be followed below.

In one series the test system is primary cortical neurons. The series is described as follows: Dihydroethidium (DHE) superoxide assay in primary cortical neurons. Format: cell-based, mice. On the procedure: Primary cortical neurons were prepared from the cortex of mice on embryonic day 15, as described previously. In brief, the embryo's cortex was isolated in Hanks' balanced salt solution and centrifuged at 176×g (1000 rpm) for 3 minutes. After aspirating the solution, cells were incubated with 0.25% trypsin for 15 minutes and seeded 20,000/well in a 96-well plate coated with the poly-D-lysin (Gibco, Cat No. A3890401). They were incubated in Neurobasal medium (Gibco, Cat No. 21103049) with 2% B27 supplement (Gibco, Cat No. 10889038), 1% penicillin/streptomycin, and 1% Glutamax (Gibco, Cat No. 35050061) until day 11 when they were used for experiments.
To examine whether GSSSG reduces ROS generated by paclitaxel, we conducted Dihydroethidium (DHE) assay (Abcam, Cat No. ab236206) that is sensitive to superoxide. The experiment was done according to protocol provided by the manufacturer. Briefly, primary cortical neurons were incubated in DHE reagent with or without 10 and 30 μM of GSSSG for 30 minutes. After incubating, 100 nM of paclitaxel was administered, and cells were incubated for one hour. Fluorescence of DHE was measured at 490 nm of excitation and 585 nm of emission wavelength.

Another series concerns primary DRG neurons. Briefly: primary DRG neurons exposed to paclitaxel: Sholl analysis and axonal mitochondria (NF200, MitoTracker). Format: cell-based, mice. As for the experimental part: Primary DRG neurons were prepared from 8 to 10-week old mice as described previously. Briefly, lumber DRG (L1 to L6) were isolated from mice and centrifuged at 176×g (1000 rpm) for 3 minutes. After aspirating the solution, DRG were incubated with Dispase-II Solution (Sigma-Aldrich, Cat No. SCM133) and collagenase type II (Worthington, Cat No. LS004176) for 70 minutes and with 0.25% trypsin for 5 minutes. Subsequently triturated by frame polished glass pipet, neurons were seeded on a 12-well plate with 15 mm coverslip. Cells were incubated in Neurobasal A-medium with 2% B27 supplement (Gibco, Cat No. 10889038), 1% penicillin/streptomycin, 1% Glutamax (Gibco, Cat No. 35050061), and nerve growth factor (Sigma Aldrich, Cat No. N6009) for 24 hours. After 24 hours, they were exposed to 100 nM of paclitaxel with or without 500 nM of GSSSG or PTNSSS for one hour and 50 nM of MitoTracker (Invitrogen, Cat No. M22426) for 30 minutes. After fixing by 4% paraformaldehyde for 10 minutes at room temperature, cells were immersed in 0.2% Triton X-100 in PBS for 7 minutes and washed by PBS. They were incubated with anti-NF200 antibody (1:400, mouse, Sigma-Aldrich, Cat No. N0142) overnight at 4° C. and with the secondary antibody (1:1000, donkey anti-mouse, Abcam, Cat No. ab150105) for one hour at room temperature. After being covered with fluoroshield mounting medium with DAPI (Sigma-Aldrich, Cat No. F6057), 9-10 cells per group (3 mice per group) were imaged on confocal microscopy (ZEISS LSM 800, Carl Zeiss, Thornwood, NY) using a 63× oil immersion objectives lens with 1,024×1,024 pixels image size.
Effects of PTNSSS and GSSSG on axonal integrity were examined in cultured murine primary DRG neurons incubated with paclitaxel. […] Morphology of neurons, the number, length, and branching of neurites, was analyzed by Sholl analysis implemented in ImageJ [30]. Sholl analysis draws equally spaced circles from the soma and counts the number of intersections between neurites and circles to quantify neuronal morphology (FIG. 8C).

The subject of series [1] is Nrf2-dependent antioxidant signaling in DRG. Briefly: real-time qPCR of antioxidant genes in lumbar DRG. In kind it is in vivo, mice. As to conditions: 2 hours after single 16 mg/kg paclitaxel i.p. with or without 50 mg/kg GSSSG oral. On the procedure:
Changes in gene expression in lumber dorsal root ganglions (DRG) induced by paclitaxel and GSSSG were examined with real-time qPCR after a single administration of paclitaxel with or without GSSSG. We simultaneously administered 16 mg/kg paclitaxel by intraperitoneal injection and 50 mg/kg GSSSG by oral gavage and examined the mRNA expression 2 hours later. Lumbar DRG were isolated from mice as described previously. Removed DRG were immersed in RNA later (Invitrogen, Cat No. AM7020) at 4° C. overnight. After retrieving from RNA later, they were stored at −80° C. DRGs were homogenized in TRIzol reagent (ThermoFisher Scientific, Cat No. 15596026) and mixed with chloroform. After centrifugation at 14000×g at 4° C. for 15 minutes, the transparent top layer was transferred to a new tube. The samples were mixed with 400 μl of isopropanol and incubated at −20° C. for 20 minutes. After centrifugation at 14000×g at 4° C. for 15 minutes, the pellets were collected, mixed with 70% ethanol, and centrifuged at 14000×g at 4° C. for 10 minutes. The pellets were dried for 10 minutes and incubated with 50 μl of nuclease-free water. Complementary DNA was synthesized using the cDNA Reverse Transcription Kit (Applied Biosystems, Cat No. 4368814) and quantitative PCR was performed by using SYBR green (Applied Biosystems, Cat No. A46109). Relative quantification of gene expression was performed via 2^−ΔΔCT method.
On the technique in general: Real-time PCR tracks product formation cycle by cycle.

Where [2] appears, read: 500 nM GSSSG with 100 nM paclitaxel for one hour, vs paclitaxel.
The mark [3] stands for this setting: 100 nM paclitaxel for one hour, vs control.

The structures appear in SMILES notation.

Regarding `N[C@@H](CCC(=O)N[C@@H](CSSSC[C@H](NC(=O)CC[C@H](N)C(=O)O)C(=O)NCC(=O)O)C(=O)NCC(=O)O)C(=O)O` [GSSSG, glutathione trisulfide], in the series on primary cortical neurons (10 μM GSSSG co-incubation with 100 nM paclitaxel, vs paclitaxel), the “paclitaxel-induced increase of intracellular superoxide (DHE)” value was “prevented the paclitaxel-induced increase of intracellular superoxide”. Moreover, the “axonal elongation (Sholl analysis)” value with primary DRG neurons (500 nM GSSSG with 100 nM paclitaxel for one hour, >160 μm from soma, vs paclitaxel) is listed as “restored axonal elongation”. Besides, in the series on primary DRG neurons (setting [2]), the “number of mitochondria in axons” value is on record as “prevented paclitaxel-induced decrease” and the “ratio of the total mitochondria length to axonal length” value was “prevented paclitaxel-induced decrease of the ratio of the total mitochondria length to axonal length”. For the same compound, in series [1], the “Nrf2 mRNA levels” value is reported as “increased Nrf2 mRNA levels”, the “expression of GCLC” value is “upregulated”, the “expression of HO1” value is “upregulated” and the “levels of NQO1 mRNA” value is given as “modestly increased”.
For `CC(=O)O[C@H]1C(=O)[C@@]2(C)[C@H]([C@H](OC(=O)c3ccccc3)[C@]3(O)C[C@H](OC(=O)[C@H](O)[C@@H](NC(=O)c4ccccc4)c4ccccc4)C(C)=C1C3(C)C)[C@]1(OC(C)=O)CO[C@@H]1C[C@@H]2O` [paclitaxel, Paclitaxel, reference compound], in the series with primary cortical neurons (setting [3]), the “intracellular levels of superoxide (DHE)” value is “increased”. In the series with primary DRG neurons (100 nM paclitaxel for one hour), the “number of mitochondria in axons” value was “decreased” and the “ratio of the total mitochondria length to axonal length” value was “decreased the ratio of the total mitochondria length to axonal length”. The “elongation of axons (Sholl analysis)” value in the series on primary DRG neurons (setting [3]) is given as “hampered elongation of axons”. In addition, in series [1], the “Nrf2 mRNA levels” value is recorded as “increased Nrf2 mRNA levels”, the “expression of GCLC” value was “not paclitaxel alone”, the “expression of HO1” value is given as “not paclitaxel alone” and the “levels of NQO1 mRNA” value was “not paclitaxel alone”.
